Experimental data as given in PubChem BioAssay (NCI).
“And” between values parts separate entries of the source, which are not always exact repeats. Identical values can stand only once.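 96-well plates; 48 h exposure; 5 concentrations. Endpoints by linear interpolation between flanking doses. Not reached: highest tested concentration assigned. GI50: concentration for 50% inhibition of growth. TGI: total growth inhibition.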

Legend:
Assay in all cases: NCI anticancer screen, dose series, 48 h
A549 NSCLC = system: A549 NSCLC
SK-MEL-28 melanoma = system: SK-MEL-28 melanoma
IGROV1 ovarian = system: IGROV1 ovarian
HL-60(TB) leukemia = system: HL-60(TB) leukemia
HCT-15 colon = system: HCT-15 colon
SNB-75 CNS = system: SNB-75 CNS
NCI/ADR-RES ovarian = system: NCI/ADR-RES ovarian
MCF7 breast = system: MCF7 breast
MDA-MB-231 breast = system: MDA-MB-231 breast
T-47D breast = system: T-47D breast

SMILES | TGI (A549 NSCLC) | TGI (SK-MEL-28 melanoma) | TGI (IGROV1 ovarian) | TGI (HL-60(TB) leukemia) | TGI (HCT-15 colon) | TGI (SNB-75 CNS) | TGI (NCI/ADR-RES ovarian) | TGI (MCF7 breast) | TGI (MDA-MB-231 breast) | TGI (T-47D breast) | GI50 (A549 NSCLC) | GI50 (SK-MEL-28 melanoma) | GI50 (IGROV1 ovarian) | GI50 (HL-60(TB) leukemia) | GI50 (HCT-15 colon) | GI50 (SNB-75 CNS) | GI50 (MCF7 breast) | GI50 (NCI/ADR-RES ovarian) | GI50 (MDA-MB-231 breast) | GI50 (T-47D breast)
O=C1C2C3CC4C5C3C1C5C1(SCCS1)C42 (stereo unspecified) | > 100 µM | > 100 µM | > 100 µM | > 100 µM | > 100 µM | > 100 µM | – | – | – | – | – | – | – | – | – | – | – | – | – | –
O=c1c2ccccc2nc(-c2cccc([N+](=O)[O-])c2)n1O | > 100 µM | > 100 µM | > 100 µM | – | > 100 µM | > 100 µM | > 87.4 µM | > 100 µM | > 100 µM | > 100 µM | – | – | – | – | – | – | – | – | – | –
CN(C)CCC(N)(P(=O)([O-])[O-])P(=O)([O-])[O-].N.N.[Pt+2] | > 100 µM | > 100 µM | > 100 µM | > 100 µM | > 100 µM | > 100 µM | – | – | – | – | > 100 µM | > 100 µM | > 100 µM | > 100 µM | > 100 µM | > 100 µM | – | – | – | –
CC(=O)OC(C)(C)C1CC[C@]2(C)/C=C/C(C)C[C@@H](O)/C=C(\C)CC(O)C12 (stereo partly specified) | > 100 µM | > 100 µM | > 100 µM | > 100 µM | > 100 µM | > 100 µM | – | – | – | – | – | – | – | – | – | – | – | – | – | –
C/C(CN1C(=O)c2ccccc2C1=O)=N\NS(=O)(=O)c1ccc2ccccc2c1 | > 100 µM | > 100 µM | > 100 µM | > 100 µM | > 100 µM | > 100 µM | – | – | – | – | – | – | – | – | – | – | – | – | – | –
COc1ccc(-c2csc3c2-n2cccc2C3=O)cc1 | > 100 µM | > 100 µM | > 88.5 µM | 0.0185 µM and 0.0984 µM | > 100 µM | 0.434 µM | > 100 µM | > 41.6 µM | > 100 µM | – | 0.0664 µM | – | 0.0229 µM | 0.00416 µM | 0.0276 µM | – | 0.0945 µM | – | – | –
CC[C@@]1(OP(=O)(O)O)C(=O)OCc2c1cc1n(c2=O)Cc2cc3ccccc3nc2-1 | 7.33 µM and 12.3 µM | 57.7 µM | 4.51 µM and 5.58 µM | 0.188 µM | – | 3.31 µM and 17.3 µM | 0.715 µM | 1.55 µM | – | 0.867 µM | 0.12 µM | 1.86 µM | 0.377 µM | – | – | 0.143 µM | – | – | – | –
NC1=C(O)c2cccc3cccc(c23)C1=O | > 100 µM | > 100 µM | > 100 µM | > 100 µM | > 100 µM | > 100 µM | – | – | – | – | – | – | – | – | – | – | – | – | – | –
Cc1cc(N(CCC#N)CCC#N)ccc1/C=C(\NC(=O)/C=C/c1ccccc1)C(=O)N=[N+]=[N-] | > 100 µM | > 100 µM | > 100 µM | > 100 µM | > 100 µM | 62 µM | – | – | – | – | – | – | – | – | – | – | – | – | – | –
N#CC(C(=O)CCCC(=O)Nc1ccccc1[N+](=O)[O-])c1c(Cl)cccc1Cl (stereo unspecified) | > 100 µM | > 100 µM | > 100 µM | > 100 µM | > 100 µM | > 100 µM | – | – | – | – | – | – | – | – | – | – | – | – | – | –
COc1ccc2c(c1)[C@@H](NC(C)=O)CCc1cc(OC)c(OC)c(OC)c1-2 | > 100 µM | > 100 µM | > 100 µM | < 0.0142 µM | > 30.9 µM | 12.9 µM | – | > 100 µM | – | > 100 µM | – | – | – | – | – | – | – | – | – | –
NC(N)NCCCc1cn2c(n1)C1CCCN1C(=O)C2Cc1ccccc1 (stereo unspecified) | > 100 µM | > 100 µM | > 100 µM | – | > 100 µM | > 100 µM | – | – | – | – | – | – | – | – | – | – | – | – | – | –
O=C(O)/C=C/c1ccc(O)c(O)c1 | > 100 µM | > 100 µM | > 100 µM | > 100 µM | > 100 µM | > 100 µM | – | – | – | – | – | – | – | – | – | – | – | – | – | –
O=c1nc2n(-c3cccc(Cl)c3)c3ccc([N+](=O)[O-])cc3cc-2c(=O)[nH]1 | > 25 µM | > 25 µM | > 25 µM | > 25 µM | > 25 µM | > 25 µM | 19.7 µM | – | 12.3 µM | > 25 µM | 12.7 µM | 8.01 µM | 17.4 µM | 1.29 µM | 9.28 µM | 11.7 µM | – | 6.15 µM | 5.36 µM | 7.82 µM
COC(=O)[C@@H](C)C[C@H](Cc1ccccc1)NC(=O)c1nc([C@@H](C[C@H](C(C)C)N(C)C(=O)[C@@H](NC(=O)[C@H]2C[C@H](O)CCN2C)C(C)C)OC(C)=O)sc1C(C)C | > 11.1 µM | > 11.1 µM | > 11.1 µM | 0.0074 µM | > 11.1 µM | 3.85 µM | > 11.1 µM | > 11.1 µM | 0.458 µM | – | 0.0519 µM | 0.0191 µM | 0.00324 µM | 0.00143 µM | 0.284 µM | 0.00462 µM | < 0.00111 µM | 2.29 µM | 0.0067 µM | –
O=S1OC(c2ccccc2)(c2ccccc2)C(c2ccccc2)(c2ccccc2)O1 | > 100 µM | > 100 µM | > 100 µM | > 100 µM | > 100 µM | > 100 µM | – | – | – | – | – | – | – | – | – | – | – | – | – | –
O=C(O)c1ccc(N(/C=C/C(=O)C(F)(F)F)Cc2ccc(Cl)cc2)cc1 | > 100 µM | 84 µM | 48.9 µM | > 100 µM | 59.7 µM | – | 68.4 µM | > 100 µM | 48.2 µM | 93.9 µM | 34.9 µM | 32.9 µM | 20.3 µM | 40.2 µM | 21.4 µM | – | > 100 µM | 23 µM | 18.6 µM | 28.5 µM
COc1ccc(C2COc3c(ccc(OC)c3OC)C2=O)cc1OC (stereo unspecified) | > 100 µM | > 100 µM | > 100 µM | > 100 µM | – | > 100 µM | – | – | – | – | – | – | – | – | – | – | – | – | – | –
COc1nc(NC2OC(COC(C)=O)C(OC(C)=O)C(OC(C)=O)C2OC(C)=O)c(N=CC=Nc2c(NC3OC(COC(C)=O)C(OC(C)=O)C(OC(C)=O)C3OC(C)=O)nc(OC)[nH]c2=O)c(=O)[nH]1 (stereo unspecified) | > 100 µM | > 100 µM | > 100 µM | > 100 µM | – | > 100 µM | – | – | – | – | – | – | – | – | – | – | – | – | – | –
CC(=O)N1C/C(=C\c2ccccc2)C(=O)/C(=C/c2ccccc2)C1 | 55.1 µM | 27.5 µM | 37.4 µM | 4.06 µM | 23.7 µM | 40.9 µM | – | – | – | – | – | – | – | – | – | – | – | – | – | –
CC(=O)/C(=C\c1ccc(Cl)cc1)c1ccccc1 | > 100 µM | > 100 µM | > 100 µM | 0.117 µM | > 100 µM | > 100 µM | > 100 µM | > 100 µM | > 100 µM | – | 0.255 µM | 2.05 µM | 0.344 µM | 0.0307 µM | 0.331 µM | 0.0691 µM | 0.0375 µM | 2.07 µM | 0.212 µM | –
